Results from US7244727B2, “Fused bicyclic nitrogen-containing heterocycles” (Japan Tobacco Inc., priority 2002, dated 2007).

What was measured:
human DGAT1 = target: T1, human DGAT1 (Homo sapiens, UniProt O75907); assay: DGAT Scintillation Proximity Assay (SPA) with membranes of insect cells expressing human flagtag DGAT1; type: biochemical; settings: read-out: hDGAT1 IC50
T1 construct: made in house; host or cells: insect cells (sf9, sf21 or High Five) infected with baculovirus; total cell membranes
T1 sequence (O75907 1-488): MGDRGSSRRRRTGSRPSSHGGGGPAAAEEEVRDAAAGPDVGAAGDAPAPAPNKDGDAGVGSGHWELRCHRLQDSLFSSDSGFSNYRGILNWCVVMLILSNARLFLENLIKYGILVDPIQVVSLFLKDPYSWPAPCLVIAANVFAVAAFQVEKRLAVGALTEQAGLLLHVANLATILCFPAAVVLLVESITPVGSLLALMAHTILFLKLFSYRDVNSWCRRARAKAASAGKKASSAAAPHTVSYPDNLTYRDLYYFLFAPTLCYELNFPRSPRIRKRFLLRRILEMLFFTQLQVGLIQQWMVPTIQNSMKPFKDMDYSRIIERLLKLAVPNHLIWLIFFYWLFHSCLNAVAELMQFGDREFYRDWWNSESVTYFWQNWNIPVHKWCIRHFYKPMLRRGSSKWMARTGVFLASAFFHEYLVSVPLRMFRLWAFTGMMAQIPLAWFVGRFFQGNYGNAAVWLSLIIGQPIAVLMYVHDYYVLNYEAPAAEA
Outline: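 Membranes (0.2 μg/well) from insect cells expressing human flag-tagged DGAT1 incubated with 10 μM compound and 200 μM dioleoyl glycerol substrate; mercuric chloride as inhibition control. Reaction stopped with WGA SPA beads in mercuric chloride, overnight bead coupling, then scintillation proximity signal read.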

| Structure (SMILES) | IC50 (human DGAT1) [nM] | melting point |
| --- | --- | --- |
| Cc1nc(N)c2c(n1)OC(C)(C)C(c1ccc([C@H]3CC[C@H](CCc4nc(=O)s[nH]4)CC3)cc1)=N2 [Example 2-196] | 10 to 100 | 211 °C (dec.) |
| Cc1nc(N)c2c(n1)OC(C)(C)C(c1ccc([C@H]3CC[C@H](CCc4nc(=O)on4C)CC3)cc1)=N2 [Example 2-197] | 10 to 100 | 250 °C (dec.) |
| Cc1nc(N)c2c(n1)OC(C)(C)C(c1ccc([C@H]3CC[C@H](CCc4nc(=O)[nH]n4C)CC3)cc1)=N2 [Example 2-198] | 10 to 100 | > 250 °C |
| Cc1nc(N)c2c(n1)OC(C)(C)C(c1ccc([C@H]3CC[C@H](CCc4nn[nH]n4)CC3)cc1)=N2 [Example 2-200] | < 10 | > 250 °C |
| Cc1nc(N)c2c(n1)OC(C)(C)C(c1ccc([C@H]3CC[C@H](CCC(=O)Nc4nn[nH]n4)CC3)cc1)=N2 [Example 2-201] | < 10 | > 250 °C |
| Cc1nc(N)c2c(n1)OC(C)(C)C(c1ccc([C@H]3CC[C@H](CC(C)(C)C(=O)O)CC3)cc1)=N2 [Example 2-202] | 10 to 100 | > 225 °C |
| CC1(C)Oc2ncnc(N)c2N=C1c1ccc([C@H]2CC[C@H](C(=O)NCCO)CC2)cc1 [Example 2-203] | 10 to 100 | 235 to 237 °C |
| CC1(C)Oc2ncnc(N)c2N=C1c1ccc([C@H]2CC[C@H](C(N)=O)CC2)cc1 [Example 2-204] | 10 to 100 | > 250 °C |
| CC1(C)Oc2ncnc(N)c2N=C1c1ccc([C@H]2CC[C@H](C(=O)NCC(=O)O)CC2)cc1 [Example 2-205] | 10 to 100 | > 250 °C |
| CC1(C)Oc2ncnc(N)c2N=C1c1ccc([C@H]2CC[C@H](C(=O)N3CCC(C(=O)O)CC3)CC2)cc1 [Example 2-207] | 10 to 100 | > 250 °C |
| CC1(C)Oc2ncnc(N)c2N=C1c1ccc([C@H]2CC[C@H](C(=O)N3CCCC3C(=O)O)CC2)cc1 (stereo partly shown) [Example 2-208] | 10 to 100 | 193 to 194 °C |
| CC(=O)N[C@H]1CC[C@H](c2ccc(C3=Nc4c(N)ncnc4OC3(C)C)cc2)CC1 [Example 2-209] | 10 to 100 | > 250 °C |
| CC1(C)Oc2ncnc(N)c2N=C1c1ccc([C@H]2CC[C@H](NS(C)(=O)=O)CC2)cc1 [Example 2-210] | 10 to 100 | > 250 °C |
| CC(NC(=O)[C@H]1CC[C@H](c2ccc(C3=Nc4c(N)ncnc4OC3(C)C)cc2)CC1)C(=O)O (stereo partly shown) [Example 2-211] | 10 to 100 | > 250 °C |
| CC(C)(NC(=O)[C@H]1CC[C@H](c2ccc(C3=Nc4c(N)ncnc4OC3(C)C)cc2)CC1)C(=O)O [Example 2-212] | < 10 | > 250 °C |
| CC1(C)Oc2ncnc(N)c2N=C1c1ccc([C@H]2CC[C@H](C(=O)NC(CO)C(=O)O)CC2)cc1 (stereo partly shown) [Example 2-213] | 10 to 100 | > 250 °C |
| CN(CC(=O)O)C(=O)[C@H]1CC[C@H](c2ccc(C3=Nc4c(N)ncnc4OC3(C)C)cc2)CC1 [Example 2-214] | < 10 | > 250 °C |
| CC1(C)Oc2ncnc(N)c2N=C1c1ccc([C@H]2CC[C@H](CN3C(=O)c4ccccc4C3=O)CC2)cc1 [Example 2-217] | 10 to 100 | 225 to 227 °C |
| CC1(C)Oc2ncnc(N)c2N=C1c1ccc([C@H]2CC[C@H](NS(N)(=O)=O)CC2)cc1 [Example 2-218] | 10 to 100 | 212 °C |
| CN(CC(=O)O)C(=O)[C@H]1CC[C@H](c2ccc(C3=Nc4c(N)ncnc4OC3(C)C)cc2)CC1 [Example 2-219] | 10 to 100 | 243 to 248 °C |
| CC1(C)Oc2ncnc(N)c2NC1c1ccc([C@H]2CC[C@H](CS(N)(=O)=O)CC2)cc1 (stereo partly shown) [Example 2-221] | > 100 | > 250 °C |
| CC1(C)Oc2ncnc(N)c2NC1c1ccc([C@H]2CC[C@H](NS(N)(=O)=O)CC2)cc1 (stereo partly shown) [Example 2-222] | > 100 | > 250 °C |
| CC1(C)Oc2ncnc(N)c2N=C1c1ccc([C@H]2CC[C@H](CN3CCCCC3)CC2)cc1 [Example 2-224] | > 100 | 169 to 171 °C |
| CC1(C)Oc2ncnc(N)c2N=C1c1ccc([C@H]2CC[C@H](CN3CCC(CCO)CC3)CC2)cc1 [Example 2-227] | > 100 | 198 to 200 °C |
| CC1(C)Oc2ncnc(N)c2N=C1c1ccc([C@H]2CC[C@H](CN3CCC(Cc4ccccc4)CC3)CC2)cc1 [Example 2-228] | > 100 | 119 to 120 °C |

| Structure (SMILES) | IC50 (human DGAT1) [nM] | melting point |
| --- | --- | --- |
| CC1(C)Oc2ncnc(N)c2N=C1c1ccc([C@H]2CC[C@H](CN3CCCC3)CC2)cc1 [Example 2-229] | > 100 | 160 to 162 °C |
| CC(C)(C)OC(=O)N1CCN(C[C@H]2CC[C@H](c3ccc(C4=Nc5c(N)ncnc5OC4(C)C)cc3)CC2)CC1 [Example 2-232] | 10 to 100 | 171 to 172 °C |
| CC(O)[C@H]1CC[C@H](c2ccc(C3=Nc4c(N)ncnc4OC3(C)C)cc2)CC1 (stereo partly shown) [Example 2-233] | > 100 | 224 to 229 °C |
| CC1(C)Oc2ncnc(N)c2N=C1c1ccc([C@H]2CC[C@H](NC(=O)CO)CC2)cc1 [Example 2-234] | 10 to 100 | 226 to 230 °C |
| CC1(C)Oc2ncnc(N)c2N=C1c1ccc([C@H]2CC[C@H](C(=O)N3CCCC3)CC2)cc1 [Example 2-235] | 10 to 100 | 201 to 202 °C |
| CC1(C)Oc2ncnc(N)c2N=C1c1ccc([C@H]2CC[C@H](C(=O)N3CCCCC3)CC2)cc1 [Example 2-236] | 10 to 100 | 220 to 224 °C |
| CC1(C)Oc2ncnc(N)c2N=C1c1ccc([C@H]2CC[C@H](C(=O)N3CCC(O)CC3)CC2)cc1 [Example 2-237] | 10 to 100 | 250 to 252 °C |
| CN1CCN(C(=O)[C@H]2CC[C@H](c3ccc(C4=Nc5c(N)ncnc5OC4(C)C)cc3)CC2)CC1 [Example 2-238] | > 100 | 190 to 191 °C |
| CC1(C)Oc2ncnc(N)c2N=C1c1ccc([C@H]2CC[C@H](C(=O)N3CCOCC3)CC2)cc1 [Example 2-239] | > 100 | 233 to 235 °C |
| CC1(C)Oc2ncnc(N)c2N=C1c1ccc([C@H]2CC[C@H](CN3CCN(S(C)(=O)=O)CC3)CC2)cc1 [Example 2-240] | 10 to 100 | 233 to 235 °C |
| CC(C)C(=O)N1CCN(C[C@H]2CC[C@H](c3ccc(C4=Nc5c(N)ncnc5OC4(C)C)cc3)CC2)CC1 [Example 2-241] | 10 to 100 | 120 to 126 °C |
| CN(C[C@H]1CC[C@H](c2ccc(C3=Nc4c(N)ncnc4OC3(C)C)cc2)CC1)C(=O)CO [Example 2-243] | 10 to 100 | 208 to 210 °C |
| CC1(C)Oc2ncnc(N)c2N=C1c1ccc([C@H]2CC[C@H](CN3CCNCC3)CC2)cc1 [Example 2-244] | 10 to 100 | 208 to 209 °C |
| CCCNC(=O)N1CCN(C[C@H]2CC[C@H](c3ccc(C4=Nc5c(N)ncnc5OC4(C)C)cc3)CC2)CC1 [Example 2-245] | 10 to 100 | 180 to 182 °C |
| CC1(C)Oc2ncnc(N)c2N=C1c1ccc([C@H]2CC[C@H](CN3CCN(C(N)=O)CC3)CC2)cc1 [Example 2-246] | 10 to 100 | 158 to 160 °C |
| CC1(C)Oc2ncnc(N)c2N=C1c1ccc([C@H]2CC[C@H](CN3CCN(C(=O)CO)CC3)CC2)cc1 [Example 2-247] | 10 to 100 | 205 to 206 °C |
| CC(C)(O)C(=O)N1CCN(C[C@H]2CC[C@H](c3ccc(C4=Nc5c(N)ncnc5OC4(C)C)cc3)CC2)CC1 [Example 2-248] | 10 to 100 | 207 to 208 °C |
| CC(=O)N1CCN(C[C@H]2CC[C@H](c3ccc(C4=Nc5c(N)ncnc5OC4(C)C)cc3)CC2)CC1 [Example 2-249] | 10 to 100 | 202 to 203 °C |
| CC1(C)Oc2ncnc(N)c2N=C1c1ccc([C@H]2CC[C@H](C(=O)N3C[C@@H](O)[C@@H](O)C3)CC2)cc1 [Example 2-250] | 10 to 100 | 220 to 240 °C |
| CC1(C)Oc2ncnc(N)c2N=C1c1ccc([C@H]2CC[C@H](CN3CCC(C(N)=O)CC3)CC2)cc1 [Example 2-251] | 10 to 100 | 159 to 164 °C |
| CCNS(=O)(=O)C[C@H]1CC[C@H](c2ccc(C3=Nc4c(N)ncnc4OC3(C)C)cc2)CC1 [Example 2-252] | 10 to 100 | 209 to 211 °C |
| CC1(C)Oc2ncnc(N)c2N=C1c1ccc([C@H]2CC[C@H](CSCC(=O)O)CC2)cc1 [Example 2-253] | < 10 | 248 °C (dec.) |
| CC1(C)Oc2ncnc(N)c2N=C1c1ccc([C@H]2CC[C@H](C(=O)CO)CC2)cc1 [Example 2-254] | 10 to 100 | 213 to 214 °C |
| Cc1nc(N)c2c(n1)OC(C)(C)C(c1ccc([C@H]3CC[C@H](C(=O)O)CC3)cc1)=N2 [Example 2-255] | 10 to 100 | > 250 °C |
| Cc1nc(N)c2c(n1)OC(C)(C)C(c1ccc([C@H]3CC[C@H](C(=O)NS(C)(=O)=O)CC3)cc1)=N2 [Example 2-256] | 10 to 100 | 172 to 175 °C |
